Assay [1] concerns the target Insulin receptor (Homo sapiens) (UniProt P06213). As to the kind of experiment: Inhibition of wild-type human Insulin receptor activation transfected in insulin-stimulated CHO-K1 cells. It counts as cell-based.
Assay [2] concerns the target MAP/microtubule affinity-regulating kinase 3 (Homo sapiens) (UniProt P27448). Briefly: Inhibition of human MARK3 at 500 nM by HotSpot assay relative to control.
Assay [3] deals with Mitogen-activated protein kinase kinase kinase 7 (Homo sapiens) (UniProt O43318). As to the kind of experiment: Inhibition of human TAK1 at 500 nM by HotSpot assay relative to control.
Mitogen-activated protein kinase kinase kinase 7 (Homo sapiens), sequence (O43318 whole entry, looked up): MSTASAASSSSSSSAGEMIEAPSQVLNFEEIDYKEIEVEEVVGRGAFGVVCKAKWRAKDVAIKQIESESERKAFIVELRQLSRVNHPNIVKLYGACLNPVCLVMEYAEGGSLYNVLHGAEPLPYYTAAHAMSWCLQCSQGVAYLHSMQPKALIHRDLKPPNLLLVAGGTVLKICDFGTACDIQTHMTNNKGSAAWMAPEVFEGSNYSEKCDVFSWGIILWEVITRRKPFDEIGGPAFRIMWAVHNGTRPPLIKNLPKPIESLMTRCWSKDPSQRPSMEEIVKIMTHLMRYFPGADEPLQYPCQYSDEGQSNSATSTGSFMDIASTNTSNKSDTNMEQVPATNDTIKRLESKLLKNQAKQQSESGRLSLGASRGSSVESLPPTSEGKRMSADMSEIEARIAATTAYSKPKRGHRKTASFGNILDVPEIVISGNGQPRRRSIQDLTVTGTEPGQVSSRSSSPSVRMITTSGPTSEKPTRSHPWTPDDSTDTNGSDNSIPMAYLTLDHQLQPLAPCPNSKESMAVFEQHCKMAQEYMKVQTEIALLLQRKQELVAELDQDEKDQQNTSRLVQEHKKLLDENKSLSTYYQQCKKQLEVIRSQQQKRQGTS
The target of assay [4] is G protein-coupled receptor kinase 5 (Homo sapiens) (UniProt P34947). Briefly: Inhibition of human GRK5 at 500 nM by HotSpot assay relative to control.
G protein-coupled receptor kinase 5 (Homo sapiens), sequence (P34947 whole entry, looked up): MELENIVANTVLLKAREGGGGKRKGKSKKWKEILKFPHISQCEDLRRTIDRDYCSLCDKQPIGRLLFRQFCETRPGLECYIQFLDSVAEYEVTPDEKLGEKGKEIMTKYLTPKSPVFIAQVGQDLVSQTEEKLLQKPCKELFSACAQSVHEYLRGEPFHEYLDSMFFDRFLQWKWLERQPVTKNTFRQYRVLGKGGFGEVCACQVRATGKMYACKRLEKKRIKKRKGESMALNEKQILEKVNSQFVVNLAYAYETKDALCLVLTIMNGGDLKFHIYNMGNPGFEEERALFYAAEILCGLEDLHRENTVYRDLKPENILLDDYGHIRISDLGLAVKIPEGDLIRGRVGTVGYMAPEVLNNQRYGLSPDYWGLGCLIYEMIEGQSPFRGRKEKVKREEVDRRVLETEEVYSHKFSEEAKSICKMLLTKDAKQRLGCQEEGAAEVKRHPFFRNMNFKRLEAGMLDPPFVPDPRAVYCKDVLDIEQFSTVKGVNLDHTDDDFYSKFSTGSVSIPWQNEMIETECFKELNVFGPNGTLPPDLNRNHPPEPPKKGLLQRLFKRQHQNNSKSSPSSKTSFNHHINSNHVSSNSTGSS
Assay [5] concerns the target T1, Lymphokine-activated killer T-cell-originated protein kinase (Homo sapiens) (UniProt Q96KB5).
T1 sequence (whole entry): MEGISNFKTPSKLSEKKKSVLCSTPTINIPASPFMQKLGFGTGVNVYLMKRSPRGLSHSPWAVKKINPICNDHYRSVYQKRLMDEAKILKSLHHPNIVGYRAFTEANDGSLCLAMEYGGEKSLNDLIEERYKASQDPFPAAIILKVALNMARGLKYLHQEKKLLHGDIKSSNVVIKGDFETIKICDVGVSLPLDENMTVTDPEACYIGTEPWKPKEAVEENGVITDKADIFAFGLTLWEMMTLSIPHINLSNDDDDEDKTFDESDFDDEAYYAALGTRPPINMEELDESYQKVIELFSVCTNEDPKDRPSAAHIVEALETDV
As to the kind of experiment: Inhibition of human TOPK at 500 nM by HotSpot assay relative to control.

Assay [6] addresses Receptor-type tyrosine-protein kinase FLT3 (Homo sapiens) (UniProt P36888). Briefly: Inhibition of human FLT3 at 500 nM by HotSpot assay relative to control.
The target in assay [7] is Glycogen synthase kinase-3 alpha (Homo sapiens) (UniProt P49840). Briefly: Inhibition of human GSK3a at 500 nM by HotSpot assay relative to control.
Glycogen synthase kinase-3 alpha (Homo sapiens), sequence (P49840 2-483 limits assumed): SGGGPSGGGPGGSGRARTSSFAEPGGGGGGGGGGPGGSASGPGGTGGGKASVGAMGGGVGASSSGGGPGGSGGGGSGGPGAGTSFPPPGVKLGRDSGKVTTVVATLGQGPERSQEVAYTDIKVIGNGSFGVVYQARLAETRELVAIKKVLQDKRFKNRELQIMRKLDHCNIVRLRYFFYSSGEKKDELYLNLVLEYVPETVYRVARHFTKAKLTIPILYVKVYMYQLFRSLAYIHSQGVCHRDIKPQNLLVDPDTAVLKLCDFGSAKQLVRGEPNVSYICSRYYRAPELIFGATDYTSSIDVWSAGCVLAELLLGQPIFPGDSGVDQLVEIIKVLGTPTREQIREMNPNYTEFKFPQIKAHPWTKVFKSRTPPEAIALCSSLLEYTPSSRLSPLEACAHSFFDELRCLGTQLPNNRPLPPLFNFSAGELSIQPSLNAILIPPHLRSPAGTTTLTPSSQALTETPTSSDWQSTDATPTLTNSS
The target of assay [8] is Dual specificity protein kinase CLK4 (Homo sapiens) (UniProt Q9HAZ1). As to the kind of experiment: Inhibition of human CLK4 at 500 nM by HotSpot assay relative to control.
Dual specificity protein kinase CLK4 (Homo sapiens), sequence (Q9HAZ1 whole entry, looked up): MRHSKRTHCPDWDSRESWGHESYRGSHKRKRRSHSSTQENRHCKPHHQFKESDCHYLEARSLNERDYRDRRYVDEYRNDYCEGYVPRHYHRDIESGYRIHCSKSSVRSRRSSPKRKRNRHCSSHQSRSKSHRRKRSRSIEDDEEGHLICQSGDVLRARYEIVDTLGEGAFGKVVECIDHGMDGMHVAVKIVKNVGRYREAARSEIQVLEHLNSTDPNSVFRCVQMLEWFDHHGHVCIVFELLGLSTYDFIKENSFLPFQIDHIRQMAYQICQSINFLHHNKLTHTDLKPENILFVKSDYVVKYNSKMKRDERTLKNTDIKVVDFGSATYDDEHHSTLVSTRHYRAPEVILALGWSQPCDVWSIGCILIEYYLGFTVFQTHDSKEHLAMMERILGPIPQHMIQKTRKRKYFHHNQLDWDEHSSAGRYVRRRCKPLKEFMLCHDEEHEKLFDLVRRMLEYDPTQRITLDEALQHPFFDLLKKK
In assay [9] the target is T2, Ephrin type-A receptor 1 (Homo sapiens) (UniProt P21709).
T2 sequence (whole entry): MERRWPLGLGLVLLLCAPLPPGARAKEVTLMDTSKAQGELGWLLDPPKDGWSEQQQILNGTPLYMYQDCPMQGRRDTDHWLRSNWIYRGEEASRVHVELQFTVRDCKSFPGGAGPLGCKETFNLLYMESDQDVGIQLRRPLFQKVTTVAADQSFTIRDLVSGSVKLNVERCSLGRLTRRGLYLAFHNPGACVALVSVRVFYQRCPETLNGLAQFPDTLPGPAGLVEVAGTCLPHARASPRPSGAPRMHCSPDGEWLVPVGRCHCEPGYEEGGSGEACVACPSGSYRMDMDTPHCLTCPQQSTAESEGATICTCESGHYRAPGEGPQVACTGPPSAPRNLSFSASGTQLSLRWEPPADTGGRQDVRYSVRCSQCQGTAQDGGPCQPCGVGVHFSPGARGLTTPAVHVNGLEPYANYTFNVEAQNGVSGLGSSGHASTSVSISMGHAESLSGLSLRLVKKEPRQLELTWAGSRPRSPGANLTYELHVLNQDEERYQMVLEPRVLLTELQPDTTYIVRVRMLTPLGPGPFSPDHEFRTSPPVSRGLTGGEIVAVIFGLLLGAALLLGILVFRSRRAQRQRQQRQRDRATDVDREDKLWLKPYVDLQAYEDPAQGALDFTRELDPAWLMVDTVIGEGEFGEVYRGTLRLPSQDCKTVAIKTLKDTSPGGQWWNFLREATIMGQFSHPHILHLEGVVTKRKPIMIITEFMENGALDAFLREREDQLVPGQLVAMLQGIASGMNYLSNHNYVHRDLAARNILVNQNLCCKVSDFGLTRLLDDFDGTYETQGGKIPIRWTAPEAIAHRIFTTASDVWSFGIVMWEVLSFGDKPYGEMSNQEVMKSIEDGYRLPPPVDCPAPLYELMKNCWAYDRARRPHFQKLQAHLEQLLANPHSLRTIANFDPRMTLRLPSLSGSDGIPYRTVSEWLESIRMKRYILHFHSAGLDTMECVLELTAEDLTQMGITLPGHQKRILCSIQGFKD
Briefly: Inhibition of human EPHA1 at 500 nM by HotSpot assay relative to control.

Assay [10] concerns the target Cyclin-dependent kinase 7/ cyclin H (Homo sapiens) (UniProt P51946+P50613). Briefly: Inhibition of human CDK7/cyclin H at 500 nM by HotSpot assay relative to control. It counts as protein-complex assay.
The target in assay [11] is cAMP-dependent protein kinase (PKA) (Homo sapiens) (UniProt P22694+P17612+P22612). As to the kind of experiment: Inhibition of human PKA at 500 nM by HotSpot assay relative to control. The assay is classed as protein assay.
Assay [12] deals with T3, Homeodomain-interacting protein kinase 4 (Homo sapiens) (UniProt Q8NE63).
T3 sequence (whole entry): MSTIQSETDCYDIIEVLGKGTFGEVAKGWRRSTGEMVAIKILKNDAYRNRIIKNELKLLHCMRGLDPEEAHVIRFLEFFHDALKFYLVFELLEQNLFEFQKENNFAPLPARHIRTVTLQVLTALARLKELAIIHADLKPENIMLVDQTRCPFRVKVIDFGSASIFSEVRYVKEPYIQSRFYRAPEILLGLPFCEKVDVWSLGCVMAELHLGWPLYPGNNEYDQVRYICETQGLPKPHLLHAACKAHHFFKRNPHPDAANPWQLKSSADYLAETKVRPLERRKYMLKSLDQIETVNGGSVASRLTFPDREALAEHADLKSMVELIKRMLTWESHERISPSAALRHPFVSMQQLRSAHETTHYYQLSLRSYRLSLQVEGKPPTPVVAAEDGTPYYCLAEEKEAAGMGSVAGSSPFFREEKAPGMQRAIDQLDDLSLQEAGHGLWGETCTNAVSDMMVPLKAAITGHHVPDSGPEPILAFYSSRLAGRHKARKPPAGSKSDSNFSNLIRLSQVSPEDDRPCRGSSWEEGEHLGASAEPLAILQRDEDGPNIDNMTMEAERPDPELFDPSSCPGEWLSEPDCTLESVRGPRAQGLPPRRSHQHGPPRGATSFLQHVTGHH
As to the kind of experiment: Inhibition of human HIPK4 at 500 nM by HotSpot assay relative to control.

Assay [13] has as its target MAP kinase-activated protein kinase 2 (Homo sapiens) (UniProt P49137). Briefly: Inhibition of human MAPKAPK2 at 500 nM by HotSpot assay relative to control.
Assay [14] deals with Dual specificity mitogen-activated protein kinase kinase 2 (Homo sapiens) (UniProt P36507). As to the kind of experiment: Inhibition of human MEK2 at 500 nM by HotSpot assay relative to control.
Dual specificity mitogen-activated protein kinase kinase 2 (Homo sapiens), sequence (P36507 whole entry): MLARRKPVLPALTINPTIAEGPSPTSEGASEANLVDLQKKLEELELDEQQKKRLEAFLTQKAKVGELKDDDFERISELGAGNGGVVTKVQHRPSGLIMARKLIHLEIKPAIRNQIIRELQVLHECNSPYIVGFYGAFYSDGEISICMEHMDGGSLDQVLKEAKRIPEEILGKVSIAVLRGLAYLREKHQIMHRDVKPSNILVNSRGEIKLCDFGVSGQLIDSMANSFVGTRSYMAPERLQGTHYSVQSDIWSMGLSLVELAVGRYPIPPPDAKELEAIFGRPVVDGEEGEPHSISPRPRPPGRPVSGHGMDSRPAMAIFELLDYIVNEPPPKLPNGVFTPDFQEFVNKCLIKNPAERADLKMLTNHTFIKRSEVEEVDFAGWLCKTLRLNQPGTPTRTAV

Structures are written as SMILES. Calls of active or inactive are those of the source. The calls are words filed in the database; no cut-off is given here.

Receptor-type tyrosine-protein kinase FLT3 (Homo sapiens), sequence (P36888 whole entry): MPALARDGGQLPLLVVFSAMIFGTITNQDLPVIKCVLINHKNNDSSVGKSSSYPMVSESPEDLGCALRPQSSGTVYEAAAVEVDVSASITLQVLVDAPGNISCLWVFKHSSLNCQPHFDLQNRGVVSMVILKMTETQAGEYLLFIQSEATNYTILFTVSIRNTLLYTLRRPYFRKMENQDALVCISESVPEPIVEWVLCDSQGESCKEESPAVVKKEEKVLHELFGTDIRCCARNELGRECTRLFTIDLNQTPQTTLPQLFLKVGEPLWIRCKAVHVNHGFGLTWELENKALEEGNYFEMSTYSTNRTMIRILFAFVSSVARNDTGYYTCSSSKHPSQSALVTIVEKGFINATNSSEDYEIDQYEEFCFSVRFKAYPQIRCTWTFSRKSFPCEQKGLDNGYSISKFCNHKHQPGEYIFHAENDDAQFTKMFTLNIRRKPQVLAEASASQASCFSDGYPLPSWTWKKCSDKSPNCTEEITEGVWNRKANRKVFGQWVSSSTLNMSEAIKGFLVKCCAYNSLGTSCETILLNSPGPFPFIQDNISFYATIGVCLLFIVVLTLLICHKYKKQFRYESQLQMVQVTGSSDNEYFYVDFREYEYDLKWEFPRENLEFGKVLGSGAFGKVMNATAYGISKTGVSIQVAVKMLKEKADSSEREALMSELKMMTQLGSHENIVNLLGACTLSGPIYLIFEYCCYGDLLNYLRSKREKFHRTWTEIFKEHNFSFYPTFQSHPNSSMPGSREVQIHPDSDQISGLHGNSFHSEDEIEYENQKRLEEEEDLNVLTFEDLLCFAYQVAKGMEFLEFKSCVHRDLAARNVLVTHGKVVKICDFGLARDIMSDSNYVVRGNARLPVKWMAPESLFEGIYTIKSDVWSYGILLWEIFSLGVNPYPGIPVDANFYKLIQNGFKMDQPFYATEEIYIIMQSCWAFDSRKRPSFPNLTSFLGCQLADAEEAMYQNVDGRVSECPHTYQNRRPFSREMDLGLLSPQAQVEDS
MAP/microtubule affinity-regulating kinase 3 (Homo sapiens), sequence (P27448 whole entry, looked up): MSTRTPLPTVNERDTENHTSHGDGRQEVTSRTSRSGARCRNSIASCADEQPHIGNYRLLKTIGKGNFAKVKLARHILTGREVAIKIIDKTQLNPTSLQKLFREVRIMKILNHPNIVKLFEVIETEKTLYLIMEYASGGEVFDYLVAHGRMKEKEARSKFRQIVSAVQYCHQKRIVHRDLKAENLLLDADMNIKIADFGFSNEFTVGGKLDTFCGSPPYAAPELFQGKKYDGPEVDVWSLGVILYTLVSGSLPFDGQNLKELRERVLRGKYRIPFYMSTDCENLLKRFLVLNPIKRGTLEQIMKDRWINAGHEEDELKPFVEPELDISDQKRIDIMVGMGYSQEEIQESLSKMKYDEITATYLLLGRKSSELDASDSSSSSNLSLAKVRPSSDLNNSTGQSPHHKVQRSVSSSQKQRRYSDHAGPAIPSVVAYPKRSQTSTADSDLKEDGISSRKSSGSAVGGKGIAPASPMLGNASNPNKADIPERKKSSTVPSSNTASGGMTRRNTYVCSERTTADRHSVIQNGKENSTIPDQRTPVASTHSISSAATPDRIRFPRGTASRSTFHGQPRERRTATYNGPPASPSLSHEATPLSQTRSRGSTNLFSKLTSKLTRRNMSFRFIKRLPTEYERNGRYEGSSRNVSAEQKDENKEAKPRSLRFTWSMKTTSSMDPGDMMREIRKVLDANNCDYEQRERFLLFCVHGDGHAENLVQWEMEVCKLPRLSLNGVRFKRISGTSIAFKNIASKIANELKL
MAP kinase-activated protein kinase 2 (Homo sapiens), sequence (P49137 whole entry, looked up): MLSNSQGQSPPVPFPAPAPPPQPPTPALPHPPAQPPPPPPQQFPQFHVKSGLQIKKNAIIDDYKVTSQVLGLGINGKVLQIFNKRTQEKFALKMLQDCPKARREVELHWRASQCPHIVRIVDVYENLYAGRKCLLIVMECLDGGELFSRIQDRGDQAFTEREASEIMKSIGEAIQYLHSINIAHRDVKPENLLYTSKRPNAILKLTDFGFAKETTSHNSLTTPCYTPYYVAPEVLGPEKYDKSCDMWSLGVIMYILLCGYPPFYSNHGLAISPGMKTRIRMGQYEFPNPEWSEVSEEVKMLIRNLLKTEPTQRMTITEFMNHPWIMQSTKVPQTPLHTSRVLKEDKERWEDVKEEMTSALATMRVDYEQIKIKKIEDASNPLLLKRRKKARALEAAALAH

For the compound `Nc1n[nH]c2nnc(-c3c(-c4ccccc4)nn4ccccc34)cc12`, the inhibition result in assay [1] is “inactive”. Further, the inhibition in assay [2] was 0.66%; in assay [3] it was -1.47%; in assay [4], -6.2%; in assay [5], 4.99%; in [6], 36.5%; in assay [7] it was 18.9%. The inhibition is 5.12% in assay [8]; 7.41% in [9]; 0.97% in assay [10]; 2.35% in [11]; 4.73% in assay [12]; -5.26% in [13]. In addition, the inhibition in [14] stood at 0.62%.

As for `Oc1n[nH]c2nnc(-c3c(-c4ccccc4)nn4ccccc34)cc12`, in assay [1], the inhibition result is “inactive”. In addition, the inhibition was -2.48% in assay [2]; -3.14% in assay [3]; -0.63% in assay [4]; -8.9% in assay [5]; 4.49% in assay [6]; -1.18% in assay [7]. Further, the inhibition in assay [8] was -0.68%; in assay [9], 4.34%; in assay [10], 3.04%; in assay [11] it was -5.26%; in assay [12], 9.6%; in assay [13], -5.6%. The inhibition in assay [14] was 1.44%.

One may read the inhibition as the change of the read-out against control, counted positive when it falls.

The values above are taken from ChEMBL document CHEMBL5653615 (J Biol Chem, 2013).
